PubChem BioAssay AID2060494 (Molecular Pharmacology Branch, DTP, NCI, 2025)

System: 435261-313-R-J1-PDC complex spheroid viability
Experiment: Anticancer human tumor 435261-313-R-J1-PDC patient-derived colon adenocarcinoma cell line growth inhibition [GQUAD]
Details: for IC50: curve of first compound; for viability, T/C: stronger effect = lower value
Procedure, shortened: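 Multi-cell-type spheroids of tumor cells with HUVEC and mesenchymal stem cells, treated with drug combinations. Concentrations descend in half-log steps from near clinical Cmax, or from 10 microM where Cmax is unknown; viability read-out.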

[1] = second compound 0.0316 µM, first compound 0.0316 µM
[2] = second compound 0.0316 µM, first compound 0.1 µM
[3] = second compound 0.0316 µM, first compound 0.316 µM
[4] = second compound 0.0316 µM, first compound 1 µM
[5] = second compound 0.0316 µM, first compound 3.16 µM
[6] = second compound 0.0316 µM, first compound 10 µM
[7] = second compound 0.1 µM, first compound 0.0316 µM
[8] = second compound 0.1 µM, first compound 0.1 µM
[9] = second compound 0.1 µM, first compound 0.316 µM
[10] = second compound 0.1 µM, first compound 1 µM
[11] = second compound 0.1 µM, first compound 3.16 µM
[12] = second compound 0.1 µM, first compound 10 µM
[13] = second compound 0.316 µM, first compound 0.0316 µM
[14] = second compound 0.316 µM, first compound 0.1 µM
[15] = second compound 0.316 µM, first compound 0.316 µM
[16] = second compound 0.316 µM, first compound 1 µM
[17] = second compound 0.316 µM, first compound 3.16 µM
[18] = second compound 0.316 µM, first compound 10 µM
[19] = second compound 1 µM, first compound 0.0316 µM
[20] = second compound 1 µM, first compound 0.1 µM
[21] = second compound 1 µM, first compound 0.316 µM
[22] = second compound 1 µM, first compound 1 µM
[23] = second compound 1 µM, first compound 3.16 µM
[24] = second compound 1 µM, first compound 10 µM
[25] = second compound 3.16 µM, first compound 0.0316 µM
[26] = second compound 3.16 µM, first compound 0.1 µM
[27] = second compound 3.16 µM, first compound 0.316 µM
[28] = second compound 3.16 µM, first compound 1 µM
[29] = second compound 3.16 µM, first compound 3.16 µM
[30] = second compound 3.16 µM, first compound 10 µM
[31] = second compound 10 µM, first compound 0.0316 µM
[32] = second compound 10 µM, first compound 0.1 µM
[33] = second compound 10 µM, first compound 0.316 µM
[34] = second compound 10 µM, first compound 1 µM
[35] = second compound 10 µM, first compound 3.16 µM
[36] = second compound 10 µM, first compound 10 µM
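Also: spheroids exposed to the agents for seven days before readout.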
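For viability, T/C in this document: percent of vehicle control viability with DMSO wells as 100%.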

C#Cc1c(F)ccc2cc(O)cc(-c3ncc4c(N5CC6CCC(C5)N6)nc(OCC56CCCN5CC(F)C6)nc4c3F)c12 (stereo not given) + Cc1cnc(CNC(=O)c2c(=O)c3ccc(N4CCCN(C)CC4)nc3n3c2sc2ccccc23)cn1
IC50 (second compound 0.0316 µM): 1840 nM
IC50 (second compound 0.1 µM): 341 nM
IC50 (second compound 0.316 µM): 448 nM
IC50 (second compound 1 µM): < 31.6 nM
IC50 (second compound 3.16 µM): < 31.6 nM
IC50 (second compound 10 µM): < 31.6 nM
viability, T/C [1]: 74.5%
viability, T/C [2]: 61%
viability, T/C [3]: 71.5%
viability, T/C [4]: 50.5%
viability, T/C [5]: 45.9%
viability, T/C [6]: 34.7%
viability, T/C [7]: 59.5%
viability, T/C [8]: 62.2%
viability, T/C [9]: 49.8%
viability, T/C [10]: 36.6%
viability, T/C [11]: 43.1%
viability, T/C [12]: 29.6%
viability, T/C [13]: 53%
viability, T/C [14]: 59.6%
viability, T/C [15]: 55.4%
viability, T/C [16]: 37.8%
viability, T/C [17]: 34.8%
viability, T/C [18]: 30.5%
viability, T/C [19]: 37.4%
viability, T/C [20]: 34.4%
viability, T/C [21]: 34.1%
viability, T/C [22]: 34.3%
viability, T/C [23]: 30%
viability, T/C [24]: 17.1%
viability, T/C [25]: 0.16%
viability, T/C [26]: 6.4%
viability, T/C [27]: 0.17%
viability, T/C [28]: 6.39%
viability, T/C [29]: 0.17%
viability, T/C [30]: 0.15%
viability, T/C [31]: 0.12%
viability, T/C [32]: 0.14%
viability, T/C [33]: 0.16%
viability, T/C [34]: 0.16%
viability, T/C [35]: 0.22%
viability, T/C [36]: 0.18%

C=CCn1c(=O)c2cnc(Nc3ccc(N4CCN(C)CC4)cc3)nc2n1-c1cccc(C(C)(C)O)n1 + Cc1cnc(CNC(=O)c2c(=O)c3ccc(N4CCCN(C)CC4)nc3n3c2sc2ccccc23)cn1
IC50 (second compound 0.0316 µM): > 10000 nM
IC50 (second compound 0.1 µM): 266 nM
IC50 (second compound 0.316 µM): 2250 nM
IC50 (second compound 1 µM): < 31.6 nM
IC50 (second compound 3.16 µM): < 31.6 nM
IC50 (second compound 10 µM): < 31.6 nM
viability, T/C [1]: 67.6%
viability, T/C [2]: 59.2%
viability, T/C [3]: 59.4%
viability, T/C [4]: 57%
viability, T/C [5]: 52.7%
viability, T/C [6]: 51.3%
viability, T/C [7]: 61.3%
viability, T/C [8]: 56.1%
viability, T/C [9]: 44.4%
viability, T/C [10]: 47.8%
viability, T/C [11]: 54.4%
viability, T/C [12]: 42.4%
viability, T/C [13]: 54%
viability, T/C [14]: 59.2%
viability, T/C [15]: 49.9%
viability, T/C [16]: 52.9%
viability, T/C [17]: 49.6%
viability, T/C [18]: 36.8%
viability, T/C [19]: 34.9%
viability, T/C [20]: 39.6%
viability, T/C [21]: 36.2%
viability, T/C [22]: 39.1%
viability, T/C [23]: 41.2%
viability, T/C [24]: 30.5%
viability, T/C [25]: 14%
viability, T/C [26]: 4.69%
viability, T/C [27]: 8.48%
viability, T/C [28]: 4.99%
viability, T/C [29]: 5.92%
viability, T/C [30]: 0.17%
viability, T/C [31]: 0.17%
viability, T/C [32]: 0.17%
viability, T/C [33]: 0.19%
viability, T/C [34]: 0.16%
viability, T/C [35]: 0.19%
viability, T/C [36]: 0.15%

COc1ncnc(C2CC2)c1-c1ncc2cnn(Cc3ccc(-c4nc(C(F)(F)F)cn4C(C)C)cc3)c2n1 + Cc1cnc(CNC(=O)c2c(=O)c3ccc(N4CCCN(C)CC4)nc3n3c2sc2ccccc23)cn1
IC50 (second compound 0.0316 µM): > 10000 nM
IC50 (second compound 0.1 µM): > 10000 nM
IC50 (second compound 0.316 µM): < 31.6 nM
IC50 (second compound 1 µM): < 31.6 nM
IC50 (second compound 3.16 µM): < 31.6 nM
IC50 (second compound 10 µM): < 31.6 nM
viability, T/C [1]: 63.8%
viability, T/C [2]: 55.6%
viability, T/C [3]: 61.9%
viability, T/C [4]: 55.2%
viability, T/C [5]: 65.9%
viability, T/C [6]: 55.6%
viability, T/C [7]: 65.5%
viability, T/C [8]: 59.7%
viability, T/C [9]: 51.1%
viability, T/C [10]: 53.5%
viability, T/C [11]: 61.9%
viability, T/C [12]: 53.8%
viability, T/C [13]: 48.4%
viability, T/C [14]: 53.7%
viability, T/C [15]: 52.4%
viability, T/C [16]: 48.5%
viability, T/C [17]: 55.1%
viability, T/C [18]: 54.3%
viability, T/C [19]: 32.6%
viability, T/C [20]: 40.8%
viability, T/C [21]: 40.7%
viability, T/C [22]: 31.8%
viability, T/C [23]: 42.1%
viability, T/C [24]: 37.2%
viability, T/C [25]: 17.9%
viability, T/C [26]: 10.5%
viability, T/C [27]: 17.6%
viability, T/C [28]: 8.94%
viability, T/C [29]: 15.1%
viability, T/C [30]: 17.2%
viability, T/C [31]: 0.18%
viability, T/C [32]: 0.17%
viability, T/C [33]: 0.23%
viability, T/C [34]: 0.19%
viability, T/C [35]: 0.2%
viability, T/C [36]: 0.18%

Nc1ccn(C2OC(CO)C(O)C2(F)F)c(=O)n1 (stereo not given) + Cc1cnc(CNC(=O)c2c(=O)c3ccc(N4CCCN(C)CC4)nc3n3c2sc2ccccc23)cn1
IC50 (second compound 0.0316 µM): > 10000 nM
IC50 (second compound 0.1 µM): > 10000 nM
IC50 (second compound 0.316 µM): 4260 nM
IC50 (second compound 1 µM): < 31.6 nM
IC50 (second compound 3.16 µM): < 31.6 nM
IC50 (second compound 10 µM): < 31.6 nM
viability, T/C [1]: 85.8%
viability, T/C [2]: 63.4%
viability, T/C [3]: 64.2%
viability, T/C [4]: 59.8%
viability, T/C [5]: 73.4%
viability, T/C [6]: 59.3%
viability, T/C [7]: 62.5%
viability, T/C [8]: 67.5%
viability, T/C [9]: 58.2%
viability, T/C [10]: 79.8%
viability, T/C [11]: 61.6%
viability, T/C [12]: 59.9%
viability, T/C [13]: 64.5%
viability, T/C [14]: 59.7%
viability, T/C [15]: 56.3%
viability, T/C [16]: 56.7%
viability, T/C [17]: 54.4%
viability, T/C [18]: 43.6%
viability, T/C [19]: 51.5%
viability, T/C [20]: 46.9%
viability, T/C [21]: 47.8%
viability, T/C [22]: 52.1%
viability, T/C [23]: 47%
viability, T/C [24]: 28%
viability, T/C [25]: 23.3%
viability, T/C [26]: 26.2%
viability, T/C [27]: 21.9%
viability, T/C [28]: 6.98%
viability, T/C [29]: 14%
viability, T/C [30]: 0.27%
viability, T/C [31]: 0.21%
viability, T/C [32]: 0.2%
viability, T/C [33]: 0.17%
viability, T/C [34]: 0.31%
viability, T/C [35]: 0.2%
viability, T/C [36]: 0.21%

O=c1[nH]cc(F)c(=O)[nH]1 + Cc1cnc(CNC(=O)c2c(=O)c3ccc(N4CCCN(C)CC4)nc3n3c2sc2ccccc23)cn1
IC50 (second compound 0.0316 µM): > 10000 nM
IC50 (second compound 0.1 µM): > 10000 nM
IC50 (second compound 0.316 µM): > 10000 nM
IC50 (second compound 1 µM): < 31.6 nM
IC50 (second compound 3.16 µM): < 31.6 nM
IC50 (second compound 10 µM): < 31.6 nM
viability, T/C [1]: 85.2%
viability, T/C [2]: 68.1%
viability, T/C [3]: 76.1%
viability, T/C [4]: 67.4%
viability, T/C [5]: 81.4%
viability, T/C [6]: 86.7%
viability, T/C [7]: 68.8%
viability, T/C [8]: 64%
viability, T/C [9]: 56.1%
viability, T/C [10]: 65.7%
viability, T/C [11]: 81.9%
viability, T/C [12]: 61.1%
viability, T/C [13]: 57.3%
viability, T/C [14]: 59.5%
viability, T/C [15]: 56.7%
viability, T/C [16]: 56%
viability, T/C [17]: 67%
viability, T/C [18]: 60.6%
viability, T/C [19]: 41.5%
viability, T/C [20]: 45.9%
viability, T/C [21]: 47.6%
viability, T/C [22]: 47%
viability, T/C [23]: 55.1%
viability, T/C [24]: 40.2%
viability, T/C [25]: 20.3%
viability, T/C [26]: 19.4%
viability, T/C [27]: 17.6%
viability, T/C [28]: 24.2%
viability, T/C [29]: 18.9%
viability, T/C [30]: 23.6%
viability, T/C [31]: 0.16%
viability, T/C [32]: 0.18%
viability, T/C [33]: 0.23%
viability, T/C [34]: 0.21%
viability, T/C [35]: 0.23%
viability, T/C [36]: 0.21%
